The text below walks through data of patent US9688699B2, “3-(pyrimidine-2-yl)imidazo[1,2-a]pyridines” (Bayer Pharma Aktiengesellschaft, priority 2014, dated 2017).

Experiment [1] concerns the target T1, recombinant guanylate cyclase reporter cell line (Rattus norvegicus, UniProt P19686+P20595).
T1 construct: expressed in transfected cells
T1 sequence (P19686 1-690): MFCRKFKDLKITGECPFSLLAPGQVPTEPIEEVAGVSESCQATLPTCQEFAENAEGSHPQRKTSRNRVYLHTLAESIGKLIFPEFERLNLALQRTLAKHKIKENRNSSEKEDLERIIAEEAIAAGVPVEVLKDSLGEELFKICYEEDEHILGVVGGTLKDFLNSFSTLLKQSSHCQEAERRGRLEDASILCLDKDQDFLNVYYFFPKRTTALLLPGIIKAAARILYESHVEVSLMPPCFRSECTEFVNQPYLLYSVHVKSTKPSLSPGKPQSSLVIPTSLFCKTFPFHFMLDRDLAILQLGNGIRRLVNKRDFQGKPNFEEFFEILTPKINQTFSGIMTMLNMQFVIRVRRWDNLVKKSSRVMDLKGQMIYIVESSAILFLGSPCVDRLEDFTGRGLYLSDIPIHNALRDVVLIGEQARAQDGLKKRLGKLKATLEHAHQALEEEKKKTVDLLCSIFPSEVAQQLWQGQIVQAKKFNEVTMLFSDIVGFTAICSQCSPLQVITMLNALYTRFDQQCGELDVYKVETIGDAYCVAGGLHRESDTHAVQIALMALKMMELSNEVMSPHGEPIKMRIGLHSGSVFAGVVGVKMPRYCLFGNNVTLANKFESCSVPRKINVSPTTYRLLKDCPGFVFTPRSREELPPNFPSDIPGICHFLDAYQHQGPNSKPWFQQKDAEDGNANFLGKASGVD
T1 sequence (P20595 1-619): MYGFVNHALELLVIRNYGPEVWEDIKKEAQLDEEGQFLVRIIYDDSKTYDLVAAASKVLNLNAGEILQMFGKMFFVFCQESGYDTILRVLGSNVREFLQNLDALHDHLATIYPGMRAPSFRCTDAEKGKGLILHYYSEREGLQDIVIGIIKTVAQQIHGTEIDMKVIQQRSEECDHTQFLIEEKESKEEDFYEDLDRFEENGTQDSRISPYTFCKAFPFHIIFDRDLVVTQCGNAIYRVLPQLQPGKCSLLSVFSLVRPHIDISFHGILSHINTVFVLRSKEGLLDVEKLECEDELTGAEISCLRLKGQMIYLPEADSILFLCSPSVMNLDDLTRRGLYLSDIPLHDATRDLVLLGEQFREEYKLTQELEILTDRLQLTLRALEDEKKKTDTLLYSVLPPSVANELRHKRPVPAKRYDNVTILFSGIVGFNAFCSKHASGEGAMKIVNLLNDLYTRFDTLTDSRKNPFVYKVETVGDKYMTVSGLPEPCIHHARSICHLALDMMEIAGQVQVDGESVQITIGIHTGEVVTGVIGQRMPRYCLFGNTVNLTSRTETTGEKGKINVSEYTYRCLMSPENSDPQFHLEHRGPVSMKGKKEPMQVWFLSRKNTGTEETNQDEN
Put plainly: Effect on a recombinant guanylate cyclase reporter cell line (B-2). It counts as cell-based. As to conditions: MEC = minimum effective concentration, in some cases mean values for individual determinations. How it is done: B-2. Effect on a Recombinant Guanylate Cyclase Reporter Cell Line
The cellular activity of the compounds according to the invention is determined using a recombinant guanylate cyclase reporter cell line, as described in F. Wunder et al., Anal. Biochem. 339, 104-112 (2005).
Representative MEC values (MEC=minimum effective concentration) for the compounds of the invention are shown in Table 1 below (in some cases as mean values for individual determinations): […]

The target of experiment [2] is T2, human phosphodiesterase 5 (PDE 5) (Homo sapiens, UniProt O76074).
T2 construct: PDE 5 preparations are obtained from human platelets by disruption; from tissue; host or cells: human platelets (Mono Q ion exchange fractions with PDE 5 activity)
Put plainly: Inhibition of human phosphodiesterase 5 (PDE 5) (B-3). The format is biochemical. The settings on record: PDE 5 preparation from human platelets; [8-3H] cGMP substrate, SPA; in some cases means of individual determinations. As for the experimental part:
B-3. Inhibition of Human Phosphodiesterase 5 (PDE 5)
PDE 5 preparations are obtained from human platelets by disruption (Microfluidizer®, 800 bar, 3 passes), followed by centrifugation (75 000 g, 60 min, 4° C.) and ion exchange chromatography of the supernatant on a Mono Q 10/10 column (linear sodium chloride gradient, elution with a 0.2-0.3M solution of sodium chloride in buffer (20 mM Hepes pH 7.2, 2 mM magnesium chloride). Fractions having PDE 5 activity are combined (PDE 5 preparation) and stored at −80° C.
To determine their in vitro action on human PDE 5, the test substances are dissolved in 100% DMSO and serially diluted. Typically, dilution series (1:3) from 200 μM to 0.091 μM are prepared (resulting final concentrations in the test: 4 μM to 0.0018 μM). In each case 2 μl of the diluted substance solutions are placed into the wells of microtitre plates (Isoplate-96/200 W; Perkin Elmer). Subsequently, 50 μl of a dilution of the above-described PDE 5 preparation are added. The dilution of the PDE 5 preparation is chosen such that during the later incubation less than 70% of the substrate are converted (typical dilution: 1:100; dilution buffer: 50 mM tris/hydrochloric acid pH 7.5, 8.3 mM magnesium chloride, 1.7 mM EDTA, 0.2% BSA). The substrate, [8-^3H] cyclic guanosine-3′,5′-monophosphate (1 μCi/μl; Perkin Elmer), is diluted 1:2000 with assay buffer (50 mM tris/hydrochloric acid pH 7.5, 8.3 mM magnesium chloride, 1.7 mM EDTA) to a concentration of 0.0005 μCi/μl. By addition of 50 μl (0.025 μCi) of the diluted substrate, the enzyme reaction is finally started. The test mixtures are incubated at room temperature for 60 min and the reaction is stopped by adding 25 μl of a suspension of 18 mg/ml yttrium scintillation proximity beads in water (phosphodiesterase beads for SPA assays, RPNQ 0150, Perkin Elmer). The microtitre plates are sealed with a film and left to stand at room temperature for 60 min. Subsequently, the plates are analysed for 30 s per well in a Microbeta scintillation counter (Perkin Elmer). IC50 values are determined using the graphic plot of the substance concentration against percentage PDE 5 inhibition.

Counter-ions that a name gives are not always drawn.

As for `Cc1nc2c(OCc3c(F)cccc3F)cccn2c1-c1nc(O)c2c(n1)NC(=O)C2(C)C` [Example 5, 2-{8-[(2,6-Difluorobenzyl)oxy]-2-methylimidazo[1,2-a]pyridin-3-yl}-4-hydroxy-5,5-dimethyl-5,7-dihydro-6H-pyrrolo[2,3-d]pyrimidin-6-one trifluoroacetate], the MEC in experiment [1] is 3 µM. Besides, the IC50 (usually the concentration that inhibits the measured activity by half) in experiment [2] was 0.69 µM. For `Cc1nc2c(OCc3c(F)cccc3F)cccn2c1-c1nc(C#N)c2c(n1)NC(=O)C2(C)C` [Example 48, 2-{8-[(2,6-Difluorobenzyl)oxy]-2-methylimidazo[1,2-a]pyridin-3-yl}-5,5-dimethyl-6-oxo-6,7-dihydro-5H-pyrrolo[2,3-d]pyrimidine-4-carbonitrile], in experiment [1], the MEC came out at 1 µM. In experiment [2], 0.19 µM corresponded to half-maximal inhibition (IC50). `Cc1nc2c(OCc3c(F)cccc3F)cccn2c1-c1nc2c(c(N3CCC[C@@H]3CO)n1)C(C)(C)C(=O)N2` [Example 37, 2-{8-[(2,6-difluorobenzyl)oxy]-2-methylimidazo[1,2-a]pyridin-3-yl}-4-[(2R)-2-(hydroxymethyl)pyrrolidin-1-yl]-5,5-dimethyl-5,7-dihydro-6H-pyrrolo[2,3-d]pyrimidin-6-one]: in experiment [1], the MEC was determined as 1 µM. The compound also displayed an IC50 in experiment [2] of 0.021 µM. As to `Cc1nc2c(OCc3c(F)cccc3F)cccn2c1-c1nc(NCC(C)(C)N)c2c(n1)NC(=O)C2(C)C(F)(F)F` (racemic) [Example 41, rac-4-[(2-Amino-2-methylpropyl)amino]-2-{8-[(2,6-difluorobenzyl)oxy]-2-methylimidazo[1,2-a]pyridin-3-yl}-5-methyl-5-(trifluoromethyl)-5,7-dihydro-6H-pyrrolo[2,3-d]pyrimidin-6-one], the MEC in experiment [1] is 0.1 µM. Further, in experiment [2], the half-inhibitory concentration (IC50) stood at 0.0017 µM. In the case of `Cc1nc2c(OCc3c(F)cccc3F)cccn2c1-c1nc2c(c(OCCO)n1)C(C)(C)C(=O)N2` [Example 47, 2-{8-[(2,6-Difluorobenzyl)oxy]-2-methylimidazo[1,2-a]pyridin-3-yl}-4-(2-hydroxyethoxy)-5,5-dimethyl-5,7-dihydro-6H-pyrrolo[2,3-d]pyrimidin-6-one], in experiment [1], the MEC worked out at 0.3 µM.

For `Cc1nc2c(OCc3c(F)cccc3F)cccn2c1-c1nc2c(c(C(=O)O)n1)C(C)(C)C(=O)N2` [Example 51, 2-{8-[(2,6-Difluorobenzyl)oxy]-2-methylimidazo[1,2-a]pyridin-3-yl}-5,5-dimethyl-6-oxo-6,7-dihydro-5H-pyrrolo[2,3-d]pyrimidine-4-carboxylic acid], the MEC in experiment [1] came to 10 µM. The compound further came in with an IC50 in experiment [2] of 0.43 µM. For `Cc1ncc(-c2nc(-c3c(C)nc4c(OCc5c(F)ccc(F)c5F)cccn34)nc3c2C(C)(C)C(=O)N3)s1` [Example 73, 5,5-Dimethyl-4-(2-methyl-1,3-thiazol-5-yl)-2-{2-methyl-8-[(2,3,6-trifluorobenzyl)oxy]imidazo[1,2-a]pyridin-3-yl}-5,7-dihydro-6H-pyrrolo[2,3-d]pyrimidin-6-one], in experiment [2], the midpoint of inhibition, the IC50, lay at 0.022 µM. Consider `CCCc1nc(-c2c(C)nc3c(OCc4c(F)ccc(F)c4F)cccn23)nc2c1C(C)(C)C(=O)N2` [Example 72, 5,5-Dimethyl-2-{2-methyl-8-[(2,3,6-trifluorobenzyl)oxy]imidazo[1,2-a]pyridin-3-yl}-4-propyl-5,7-dihydro-6H-pyrrolo[2,3-d]pyrimidin-6-one], for which the MEC in experiment [1] was found to be 3 µM.

With `Cc1nc2c(OCc3c(F)ccc(F)c3F)cccn2c1-c1nc2c(c(OCCC(F)(F)F)n1)C(C)(C)C(=O)N2` [Example 77, 5,5-Dimethyl-2-{2-methyl-8-[(2,3,6-trifluorobenzyl)oxy]imidazo[1,2-a]pyridin-3-yl}-4-(3,3,3-trifluoropropoxy)-5,7-dihydro-6H-pyrrolo[2,3-d]pyrimidin-6-one], inhibition in experiment [2] was half-maximal at 0.14 µM (IC50).

Take `Cc1nc2c(OCc3c(F)ccc(F)c3F)cccn2c1-c1nc(NCC(C)(C)N)c2c(n1)NC(=O)C2(C)C` [Example 31, 4-[(2-Amino-2-methylpropyl)amino]-5,5-dimethyl-2-{2-methyl-8-[(2,3,6-trifluorobenzyl)oxy]imidazo[1,2-a]pyridin-3-yl}-5,7-dihydro-6H-pyrrolo[2,3-d]pyrimidin-6-one formate]: the IC50 in experiment [2] came out at 0.0012 µM. As for `Cc1nc2c(OCc3c(F)ccc(F)c3F)cccn2c1-c1nc2c(c(OCC3CC3)n1)C(C)(C)C(=O)N2` [Example 76, 4-(Cyclopropylmethoxy)-5,5-dimethyl-2-{2-methyl-8-[(2,3,6-trifluorobenzyl)oxy]imidazo[1,2-a]pyridin-3-yl}-5,7-dihydro-6H-pyrrolo[2,3-d]pyrimidin-6-one], the IC50 in experiment [2] is 0.046 µM. In turn, `Cc1nc2c(OCc3c(F)ccc(F)c3F)cccn2c1-c1nc(CCC2CC2)c2c(n1)NC(=O)C2(C)C` [Example 71, 4-(2-Cyclopropylethyl)-5,5-dimethyl-2-{2-methyl-8-[(2,3,6-trifluorobenzyl)oxy]imidazo[1,2-a]pyridin-3-yl}-5,7-dihydro-6H-pyrrolo[2,3-d]pyrimidin-6-one] had an IC50 in experiment [2] of 0.2 µM. On the same count and under the same terms, under `Cc1nc2c(OCc3c(F)ccc(F)c3F)cccn2c1-c1nc(C#CC2CC2)c2c(n1)NC(=O)C2(C)C` [Example 70, 4-(Cyclopropylethynyl)-5,5-dimethyl-2-{2-methyl-8-[(2,3,6-trifluorobenzyl)oxy]imidazo[1,2-a]pyridin-3-yl}-5,7-dihydro-6H-pyrrolo[2,3-d]pyrimidin-6-one] stands 0.43 µM; under `Cc1nc2c(OCc3c(F)ccc(F)c3F)cccn2c1-c1nc2c(c(C(=O)NCC(C)(N)C(F)(F)F)n1)C(C)(C)C(=O)N2` (racemic) [Example 57, rac-N-(2-amino-3,3,3-trifluoro-2-methylpropyl)-5,5-dimethyl-2-{2-methyl-8-[(2,3,6-trifluorobenzyl)oxy]imidazo[1,2-a]pyridin-3-yl}-6-oxo-6,7-dihydro-5H-pyrro1o[2,3-d]pyrimidine-4-carboxamide], 0.003 µM.
